We go through 17 compounds from ChEMBL document CHEMBL1136586, “Structure-activity relationship of linear peptide Bu-His6-DPhe7-Arg8-Trp9-Gly10-NH2 at the human melanocortin-1 and -4 receptors: DPhe7 and Trp9 substitution” (Bioorg Med Chem Lett, 2003).

The target of experiment [1] is T1, Melanocortin receptor 4 (Homo sapiens, UniProt P32245). As to the kind of experiment: Inhibitory concentration of compound was determined against hMC4R through displacement of NDP-MSH radioligand using HEK293 cells. The experiment is classed as cell-based.
The target in experiment [2] is T1, Melanocortin receptor 4. As to the kind of experiment: (§1) Effective concentration against hMC4R using HEK293 cells was determined by measuring cAMP accumulation at 50 uM. The experiment is classed as functional, cell-based.
Experiment [3] deals with T2, Melanocyte-stimulating hormone receptor (Homo sapiens, UniProt Q01726). As to the kind of experiment: Inhibitory concentration of compound was determined against hMC1R through displacement of NDP-MSH radioligand using HEK293 cells. The experiment is classed as cell-based.
The target in experiment [4] is T2, Melanocyte-stimulating hormone receptor. As to the kind of experiment: Effective concentration against hMC1R using HEK293 cells was determined by measuring the cAMP accumulation. The experiment is classed as functional, cell-based.
The target in experiment [5] is T1, Melanocortin receptor 4. As to the kind of experiment: (§2) Effective concentration against hMC4R using HEK293 cells was determined by measuring cAMP accumulation. The experiment is classed as functional, cell-based.
Experiment [6] has as its target T1, Melanocortin receptor 4. The description is as §1. The experiment is classed as functional, cell-based. The source holds these as a separate data set.
In experiment [7] the target is T1, Melanocortin receptor 4. The description is as §2. The experiment is classed as functional, cell-based. The source holds these as a separate data set.

Square brackets hold non-standard residues; d marks the D form. Peptide text beside a SMILES is read from it. * marks the point of attachment. Phe(3-CF3) = N[C@@H](Cc1cccc(C(F)(F)F)c1)C(=O)O; Phe(4-Br) = N[C@@H](Cc1ccc(Br)cc1)C(=O)O; Phe(4-Cl) = N[C@@H](Cc1ccc(Cl)cc1)C(=O)O; Phe(4-Me) = Cc1ccc(C[C@H](N)C(=O)O)cc1; Butyryl = CCCC(=O)*

T2 sequence (Q01726 whole entry): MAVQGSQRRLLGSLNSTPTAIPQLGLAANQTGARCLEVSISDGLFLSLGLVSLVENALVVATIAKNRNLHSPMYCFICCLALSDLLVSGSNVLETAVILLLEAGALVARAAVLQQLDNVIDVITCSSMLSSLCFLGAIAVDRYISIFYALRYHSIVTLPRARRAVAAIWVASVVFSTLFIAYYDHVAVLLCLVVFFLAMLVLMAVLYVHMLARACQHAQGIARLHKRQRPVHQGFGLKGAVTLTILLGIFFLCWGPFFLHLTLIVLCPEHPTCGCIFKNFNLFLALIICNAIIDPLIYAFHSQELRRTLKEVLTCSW
T1 sequence (P32245 whole entry): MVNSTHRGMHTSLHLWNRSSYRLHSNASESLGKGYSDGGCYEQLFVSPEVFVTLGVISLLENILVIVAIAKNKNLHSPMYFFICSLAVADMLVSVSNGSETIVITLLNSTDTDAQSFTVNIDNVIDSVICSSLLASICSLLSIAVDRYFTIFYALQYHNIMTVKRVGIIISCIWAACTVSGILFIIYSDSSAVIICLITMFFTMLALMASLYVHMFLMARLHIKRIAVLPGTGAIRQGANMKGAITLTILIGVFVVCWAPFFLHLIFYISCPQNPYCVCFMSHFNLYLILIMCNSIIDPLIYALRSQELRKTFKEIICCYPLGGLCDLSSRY

For the compound `CCCC(=O)N[C@@H](Cc1c[nH]cn1)C(=O)N[C@H](Cc1ccc2ccccc2c1)C(=O)N[C@@H](CCCN=C(N)N)C(=O)N[C@@H](Cc1c[nH]c2ccccc12)C(=O)NCC(N)=O`, the results for the IC50 in experiment [1] and in experiment [3] were 30 nM and 5000 nM, respectively. Besides, the inhibition in experiment [2] worked out at 0%. This compound also returned an EC50 in experiment [4] of 48 nM.
With `CCCC(=O)N[C@@H](Cc1c[nH]cn1)C(=O)N[C@H](Cc1ccc(Cl)c(Cl)c1)C(=O)N[C@@H](CCCN=C(N)N)C(=O)N[C@@H](Cc1c[nH]c2ccccc12)C(=O)NCC(N)=O`, the values for the IC50 in experiment [1] and in experiment [3] were 4 nM and 250 nM, respectively. The inhibition in experiment [2] came out at 0%. This compound registered an EC50 in experiment [4] of 10 nM.
Take `CCCC(=O)N[C@@H](Cc1c[nH]cn1)C(=O)N[C@H](Cc1cccc2ccccc12)C(=O)N[C@@H](CCCN=C(N)N)C(=O)N[C@@H](Cc1c[nH]c2ccccc12)C(=O)NCC(N)=O`: the IC50 in experiment [1] was found to be 350 nM; in experiment [3], 4000 nM. Moreover, the EC50 in experiment [5] stood at 65 nM; in experiment [4], 30 nM.
Regarding `CCCC(=O)N[C@@H](Cc1cnc[nH]1)C(=O)N[C@H](Cc1ccccc1)C(=O)N[C@@H](CCCNC(=N)N)C(=O)N[C@@H](Cc1csc2ccccc12)C(=O)NCC(N)=O`, the IC50 in experiment [1] came to 1000 nM; in experiment [3], 2880 nM. For the same compound, the EC50 in experiment [5] was determined as 100 nM; in experiment [4], 274 nM.
Taken in the same sequence, the figures for `CCCC(=O)N[C@@H](Cc1cnc[nH]1)C(=O)N[C@@H](Cc1ccccc1)C(=O)N[C@@H](CCCNC(=N)N)C(=O)N[C@@H](Cc1c[nH]c2ccccc12)C(=O)NCC(N)=O` were 150 nM, 575 nM, 20 nM and 10 nM.
Taken in the same sequence, the figures for `CCCC(=O)N[C@@H](Cc1c[nH]cn1)C(=O)N[C@@H](Cc1ccc(OC)cc1)C(=O)N[C@@H](CCCN=C(N)N)C(=O)N[C@@H](Cc1c[nH]c2ccccc12)C(=O)NCC(N)=O` (Butyryl-HY(Me)RWG-NH2) were 120 nM, 70 nM, 60 nM and 0.4 nM.
With `CCCC(=O)N[C@@H](Cc1cnc[nH]1)C(=O)N[C@@H](Cc1ccc(O)cc1)C(=O)N[C@@H](CCCNC(=N)N)C(=O)N[C@@H](Cc1c[nH]c2ccccc12)C(=O)NCC(N)=O` (Butyryl-HYRWG-NH2), the figures for the EC50 in experiment [5] and in experiment [4] were 1150 nM and 180 nM, respectively.
Turning to `CCCC(=O)N[C@@H](Cc1cnc[nH]1)C(=O)N[C@@H](Cc1cccc(C(F)(F)F)c1)C(=O)N[C@@H](CCCNC(=N)N)C(=O)N[C@@H](Cc1c[nH]c2ccccc12)C(=O)NCC(N)=O` (Butyryl-H[Phe(3-CF3)]RWG-NH2), the IC50 in experiment [1] turned out to be 300 nM; in experiment [3] it was 9600 nM. In addition, the EC50 amounted to 45 nM in experiment [5] and 611 nM in experiment [4].
Take `CCCC(=O)N[C@@H](Cc1c[nH]cn1)C(=O)N[C@@H](Cc1ccc(Br)cc1)C(=O)N[C@@H](CCCN=C(N)N)C(=O)N[C@@H](Cc1c[nH]c2ccccc12)C(=O)NCC(N)=O` (Butyryl-H[Phe(4-Br)]RWG-NH2): the IC50 in experiment [1] came out at 22 nM; in experiment [3] it was 300 nM. The EC50 in experiment [5] was found to be 13 nM; in experiment [4], 54 nM.
On to `CCCC(=O)N[C@@H](Cc1cnc[nH]1)C(=O)N[C@@H](Cc1ccc(Cl)cc1)C(=O)N[C@@H](CCCNC(=N)N)C(=O)N[C@@H](Cc1c[nH]c2ccccc12)C(=O)NCC(N)=O` (Butyryl-H[Phe(4-Cl)]RWG-NH2), for which the IC50 was 80 nM in experiment [1] and 300 nM in experiment [3]. The EC50 in experiment [5] and in experiment [4] was 20 nM each time.
For the compound `CCCC(=O)N[C@@H](Cc1cnc[nH]1)C(=O)N[C@@H](Cc1ccc(C)cc1)C(=O)N[C@@H](CCCNC(=N)N)C(=O)N[C@@H](Cc1c[nH]c2ccccc12)C(=O)NCC(N)=O` (Butyryl-H[Phe(4-Me)]RWG-NH2), the EC50 in experiment [5] worked out at 77 nM; in experiment [4] it was 55 nM.
In the case of `CCCC(=O)N[C@@H](Cc1c[nH]cn1)C(=O)NC(Cc1ccccc1)C(=O)N[C@@H](CCCN=C(N)N)C(=O)NC(Cc1c[nH]c2ccccc12)C(=O)NCC(N)=O` (single isomer, unassigned), the EC50 in experiment [6] and in experiment [4] was 110 nM each time.
`CCCC(=O)N[C@@H](Cc1c[nH]cn1)C(=O)NC(Cc1ccccc1)C(=O)N[C@@H](CCCN=C(N)N)C(=O)N[C@@H](Cc1ccc(Cl)c(Cl)c1)C(=O)NCC(N)=O` (single isomer, unassigned) showed an ED50 in experiment [7] of 194 nM. The concentration for a half-maximal effect (EC50) in experiment [4] worked out at 1 nM.
Consider `CCCC(=O)N[C@@H](Cc1c[nH]cn1)C(=O)NC(Cc1ccc(OCC)cc1)C(=O)N[C@@H](CCCN=C(N)N)C(=O)N[C@@H](Cc1c[nH]c2ccccc12)C(=O)NCC(N)=O` (single isomer, unassigned), for which the IC50 in experiment [1] was found to be 100 nM; in experiment [3], 16 nM. The EC50 in experiment [5] is 16 nM; in experiment [4] it was 0.1 nM.
`CCCC(=O)N[C@@H](Cc1c[nH]cn1)C(=O)NC(Cc1cccs1)C(=O)N[C@@H](CCCN=C(N)N)C(=O)N[C@@H](Cc1c[nH]c2ccccc12)C(=O)NCC(N)=O` (single isomer, unassigned): the EC50 in experiment [6] was found to be 8 nM; in experiment [4], 4 nM.
For `CCCC(=O)N[C@@H](Cc1c[nH]cn1)C(=O)NC(Cc1ccccc1)C(=O)N[C@@H](CCCN=C(N)N)C(=O)N[C@@H](Cc1ccc2ccccc2c1)C(=O)NCC(N)=O` (single isomer, unassigned), the results for the IC50 in experiment [1] and in experiment [3] were 50 nM and 600 nM, respectively. Also, the EC50 in experiment [5] came out at 25 nM; in experiment [4], 14 nM.
In the case of `CCCC(=O)N[C@@H](Cc1c[nH]cn1)C(=O)NC(Cc1ccccc1)C(=O)N[C@@H](CCCN=C(N)N)C(=O)N[C@@H](Cc1cccc2ccccc12)C(=O)NCC(N)=O` (single isomer, unassigned), the half-maximal inhibitory concentration (IC50) amounted to 600 nM in experiment [1] and 1200 nM in experiment [3]. For the same compound, the EC50 amounted to 140 nM in experiment [5] and 150 nM in experiment [4].
